The values below come from patent publication US20250368635A1, “HETEROARYL DERIVATIVE COMPOUND, AND USES THEREOF” (VORONOI, INC., priority 2022, published 2025).

As a reminder, the GI50 is the concentration at which growth is held to half of that of the control.

Where only a bound is given, the exact number is not on record here.

Assay [1] has as its system Ba/F3 cells expressing EGFR Del19/C797S (EGFR DC). The assay can be described thus: Inhibition of proliferation of Ba/F3 cells expressing EGFR Del19/C797S (CellTiter-Glo, 72 h). The note with it: Mus musculus, BaF3, 72 hours treatment. Type of assay: cell-based. The method, then:
(§1) The following experiment was performed to evaluate the inhibitory activity of the compounds according to the present invention on the proliferation of Ba/F3 cells expressing EGFR Del19/C797S (EGFR DC) and EGFR L858R/C797S (EGFR LC) mutations.
(§2) Ba/F3 cells were cultured using medium (RPMI-1640) containing 10% fetal bovine serum (FBS) and 5 ng/ml IL-3 (R&D Systems). The transduced Ba/F3 cells were cultured by adding 1 μg/ml puromycin (Invitrogen) to the same medium.
(§3) 24 hours prior to treatment with compounds, 3,000 to 5,000 cells were seeded on a well plate (white clear bottom 96 well plate, Corning). The compounds were diluted in dimethyl sulfoxide (3-fold dilution, total of 12 concentrations) and injected at 1 μl each so that the final concentration was 0.2 nM to 5 μM. After 72 hours post treatment with compounds, living cells were stored at room temperature for 10 minutes using CellTiter-Glo luminescent cell-viability reagent (Promega), and the luminescence intensity thereof was measured using a reader (Synergy Neo, Biotek). Each test was repeated three times. The result values were calculated as a cell growth rate (%) compared to the control group. A graph was created using the GraphPad Prism version 8.3.0 program, and GI50 values were calculated.
(Cellular ATP, detected with luciferase, serves as a proxy for viable cell number.)

Assay [2] concerns Ba/F3 cells expressing EGFR L858R/C797S (EGFR LC). The assay can be described thus: Inhibition of proliferation of Ba/F3 cells expressing EGFR L858R/C797S (CellTiter-Glo, 72 h). The assay is classed as cell-based. As to conditions: Mus musculus, BaF3, 72 hours treatment. The method, then:
as §1, §2, §3

Regarding `COc1cc(N2CCC3(CC2)CC3(F)F)c(-c2cnn(C)c2)cc1Nc1cc(N2OCC[C@@H]2c2cccc(F)c2F)ncn1` [Example 32, (R)-N-(4-(1,1-difluoro-6-azaspiro[2.5]octan-6-yl)-2-methoxy-5-(1-methyl-1H-pyrazol-4-yl)phenyl)-6-(3-(2,3-difluorophenyl)isoxazolidin-2-yl)pyrimidin-4-amine], the GI50 in assay [1] and in assay [2] was 100 to 1000 nM throughout. As for `COc1cc(N2CCC3(CCN(CCF)CC3)CC2)c(-c2cnn(C)c2)cc1Nc1cc(N2OCC[C@@H]2c2cccc(F)c2F)ncn1` [Example 50, (R)-6-(3-(2,3-difluorophenyl)isoxazolidin-2-yl)-N-(4-(9-(2-fluoroethyl)-3,9-diazaspiro[5.5]undecan-3-yl)-2-methoxy-5-(1-methyl-1H-pyrazol-4-yl)phenyl)pyrimidin-4-amine], the concentration for 50% growth inhibition (GI50) in assay [1] and in assay [2] was < 100 nM throughout. With `COc1cc(N2CCC3(CC2)CCN(C(C)(C)CF)CC3)c(-c2cn(C)nc2F)cc1Nc1cc(N2OCC[C@@H]2c2cccc(F)c2F)ncn1` [Example 1, (R)-6-(3-(2,3-difluorophenyl)isoxazolidin-2-yl)-N-(5-(3-fluoro-1-methyl-1H-pyrazol-4-yl)-4-(9-(1-fluoro-2-methylpropan-2-yl)-3,9-diazaspiro[5.5]undecan-3-yl)-2-methoxyphenyl)pyrimidin-4-amine], the GI50 in assay [1] and in assay [2] was < 100 nM throughout. For the compound `COc1cc(N2CCC3(CCOCC3)CC2)c(-c2cnn(C)c2)cc1Nc1cc(N2OCC[C@@H]2c2cccc(F)c2F)ncn1` [Example 28, (R)-6-(3-(2,3-difluorophenyl)isoxazolidin-2-yl)-N-(2-methoxy-5-(1-methyl-1H-pyrazol-4-yl)-4-(3-oxa-9-azaspiro[5.5]undecan-9-yl)phenyl)pyrimidin-4-amine], the 50% growth inhibitory concentration (GI50) in assay [1] and in assay [2] was < 100 nM in each case. With `COc1cc(N2CCN(C)CC2)c(-c2cnn(C)c2)cc1Nc1cc(N2OCC[C@@H]2c2cccc(F)c2F)ncn1` [Example 98, (R)-6-(3-(2,3-difluorophenyl)isoxazolidin-2-yl)-N-(2-methoxy-5-(1-methyl-N-pyrazol-4-yl)-4-(4-methylpiperazin-1-yl)phenyl)pyrimidin-4-amine], the concentration for 50% growth inhibition (GI50) in assay [1] was < 100 nM. On the same count and under the same terms, the same measure for `COc1cc(N2CCN(C)CC2)c(-c2ccncc2)cc1Nc1cc(N2OCC[C@@H]2c2cccc(F)c2F)ncn1` [Example 79, (R)-6-(3-(2,3-difluorophenyl)isoxazolidin-2-yl)-N-(2-methoxy-4-(4-methylpiperazin-1-yl)-5-(pyridin-4-yl)phenyl)pyrimidin-4-amine]: 100 to 1000 nM. For the compound `COc1cc(N2CCC3C(C2)C3(F)F)c(-c2cnn(C)c2)cc1Nc1cc(N2OCC[C@@H]2c2cccc(F)c2F)ncn1` (stereo partly drawn) [Example 41, N-(4-(7,7-difluoro-3-azabicyclo[4.1.0]heptan-3-yl)-2-methoxy-5-(1-methyl-1H-pyrazol-4-yl)phenyl)-6-((R)-3-(2,3-difluorophenyl)isoxazolidin-2-yl)pyrimidin-4-amine], the 50% growth inhibitory concentration (GI50) in assay [1] and in assay [2] was 100 to 1000 nM in each case. Regarding `Cn1cc(-c2cc(Nc3cc(N4OCC[C@@H]4c4cccc(F)c4F)ncn3)c3c(c2N2CCOCC2)OCCO3)cn1` [Example 96, (R)-6-(3-(2,3-difluorophenyl)isoxazolidin-2-yl)-N-(7-(1-methyl-1H-pyrazol-4-yl)-8-morpholino-2,3-dihydrobenzo[b][1,4]dioxin-5-yl)pyrimidin-4-amine], in assay [1], the concentration for 50% growth inhibition (GI50) was in the range of 100 to 1000 nM. Regarding `COc1cc(N2CCC3(CC2)CC(OC)C3)c(-c2cnn(C)c2)cc1Nc1cc(N2OCC[C@@H]2c2cccc(F)c2F)ncn1` [Example 30, (R)-6-(3-(2,3-difluorophenyl)isoxazolidin-2-yl)-N-(2-methoxy-4-(2-methoxy-7-azaspiro[3.5]nonan-7-yl)-5-(1-methyl-1H-pyrazol-4-yl)phenyl)pyrimidin-4-amine], the 50% growth inhibitory concentration (GI50) in assay [1] and in assay [2] was < 100 nM each time. With `COc1cc(N2CCC(N3CC(F)(F)C3)CC2)c(-c2cnn(C)c2)cc1Nc1cc(N2OCC[C@@H]2c2cccc(F)c2F)ncn1` [Example 55, (R)-N-(4-(4-(3,3-difluoroazetidin-1-yl)piperidin-1-yl)-2-methoxy-5-(1-methyl-1H-pyrazol-4-yl)phenyl)-6-(3-(2,3-difluorophenyl)isoxazolidin-2-yl)pyrimidin-4-amine], the GI50 in assay [1] is < 100 nM. The same measure, in the same setting: in the case of `CN1CCN(C2CCN(c3c(-c4cnn(C)c4)cc(Nc4cc(N5OCC[C@@H]5c5cccc(F)c5F)ncn4)c4c3CCO4)CC2)CC1` [Example 112, (R)-6-(3-(2,3-difluorophenyl)isoxazolidin-2-yl)-N-(5-(1-methyl-1H-pyrazol-4-yl)-4-(4-(4-methylpiperazin-1-yl)piperidin-1-yl)-2,3-dihydrobenzofuran-7-yl)pyrimidin-4-amine] it was 100 to 1000 nM. Regarding `COc1cc(N2CCC3(CC2)CCN(C(C)(C)CF)CC3)c(-c2cnn(C)c2)cc1Nc1cc(N2OCC[C@@H]2c2ccccc2)ncn1` [Example 10, (R)-N-(4-(9-(1-fluoro-2-methylpropan-2-yl)-3,9-diazaspiro[5.5]undecan-3-yl)-2-methoxy-5-(1-methyl-1H-pyrazol-4-yl)phenyl)-6-(3-phenylisoxazolidin-2-yl)pyrimidin-4-amine], the 50% growth inhibitory concentration (GI50) in assay [1] and in assay [2] was < 100 nM each time.

As for `COc1cc(N2CC3(CCN(C(C)(C)CF)CC3)C2)c(-c2cnn(C)c2)cc1Nc1cc(N2OCC[C@@H]2c2cccc(F)c2F)ncn1` [Example 14, (R)-6-(3-(2,3-difluorophenyl)isoxazolidin-2-yl)-N-(4-(7-(1-fluoro-2-methylpropan-2-yl)-2,7-diazaspiro[3.5]nonan-2-yl)-2-methoxy-5-(1-methyl-1H-pyrazol-4-yl)phenyl)pyrimidin-4-amine], the GI50 in assay [1] and in assay [2] was < 100 nM each time. Regarding `COc1cc(N2CCC(C)(OC)CC2)c(-c2cnn(C)c2)cc1Nc1cc(N2OCC[C@@H]2c2cccc(F)c2F)ncn1` [Example 109, (R)-6-(3-(2,3-difluorophenyl)isoxazolidin-2-yl)-N-(2-methoxy-4-(4-methoxy-4-methylpiperidin-1-yl)-5-(1-methyl-1H-pyrazol-4-yl)phenyl)pyrimidin-4-amine], the concentration for 50% growth inhibition (GI50) in assay [1] was < 100 nM. With `COc1cc(N2C3COCC2C3)c(-c2cnn(C)c2)cc1Nc1cc(N2OCC[C@@H]2c2cccc(F)c2F)ncn1` [Example 44, N-(4-(3-oxa-6-azabicyclo[3.1.1]heptan-6-yl)-2-methoxy-5-(1-methyl-1H-pyrazol-4-yl)phenyl)-6-((R)-3-(2,3-difluorophenyl)isoxazolidin-2-yl)pyrimidin-4-amine], in assay [1], the concentration for 50% growth inhibition (GI50) lay in the range of 100 to 1000 nM.
